Several values for one entry are separate records, joined by “and”; a condition that tells them apart may be missing. Equal entries are not always repeated. Where two headings read alike, the source gives them in different places. Each block holds one compound with its values, some of them ahead of it.
Legend:
CXCR2 [1] = biological target: T1, CXCR2 (Homo sapiens, UniProt P25025); assay: Membrane-based NanoBRET competition assay with 9a; assay type: binding; conditions: for % comp. @ 70 μM: competitor 70 μM, 9a (50 nM)
T1 construct: Promega pNLF1-C (Nluc) #CXCR20TN00; host or cells: HEK293T, transient transfection (PEI)
T1 sequence (P25025 1-360): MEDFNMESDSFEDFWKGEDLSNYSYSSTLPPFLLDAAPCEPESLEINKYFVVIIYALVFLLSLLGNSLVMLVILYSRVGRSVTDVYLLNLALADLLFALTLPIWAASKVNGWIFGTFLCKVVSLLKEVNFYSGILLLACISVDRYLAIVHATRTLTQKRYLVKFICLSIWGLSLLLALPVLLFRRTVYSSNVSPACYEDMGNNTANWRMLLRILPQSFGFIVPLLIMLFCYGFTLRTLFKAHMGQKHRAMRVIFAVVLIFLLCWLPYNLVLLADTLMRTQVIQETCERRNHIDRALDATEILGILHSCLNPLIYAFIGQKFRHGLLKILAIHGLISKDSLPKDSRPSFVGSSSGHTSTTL
Method: Then, 20 μL of the membrane preparation (diluted in assay buffer, 2 μg total protein/well) was added and the plates were incubated for 90 min at 37 °C. Subsequently, 5 μL of a furimazine solution (final assay dilution: 1:5000 in the assay buffer) was added to each well (final assay volume: 35 μL). […] To determine the inhibition constants (Ki) of the nonlabeled ligands, data were analyzed using the one-site-fit Ki equation in PRISM9.5 (GraphPad).

CXCR2 [2] = biological target: T1, CXCR2; conditions: cited from earlier work
CXCR2 [3] = biological target: T1, CXCR2; assay: Fluorescence microscopy, displacement of 9a in HEK293 cells stably expressing CXCR2; assay type: cell-based; conditions: 9a 500 nM
Method: For live cell microscopy, HEK293 cells stably expressing CXCR2 were seeded onto poly-D-lysine (PDL)-coated 8-well μ-slides (Ibidi) at a density of 1.5 × 10^5 cells per well and cultured overnight at 37 °C and 5% CO2. […] Afterward, the fluorescent CXCR2 ligand ((9a) final concentration 500 nM) was added for 60 min at 37 °C, and the cells were washed once with PBS before imaging. For immunostaining, the cells were first fixed with 4% paraformaldehyde solution, washed with PBS, and then blocked for 1 h with 10% goat serum and 1% fatty acid-free bovine serum albumin (BSA) in PBS at 37 °C. As primary antibody, anti-CXCR2 mouse IgG (R&D Systems, catalog # 48311, 1:100 in blocking solution) was added, and the cells were incubated for 1 h at 37 °C. After three washes with PBS, goat anti-mouse IgG (H+L) conjugated to FITC (Sigma-Aldrich, catalog # AP124F, 1:500 in blocking solution) was added for 1 h at 37 °C. The cells were again washed three times with PBS and counterstained with 4′,6-diamidin-2-phenylindole (DAPI) solution (0.1 μg/mL) for 15 min in the dark at room temperature, followed by three washes with PBS. […] Afterward, the fluorescent CXCR2 ligand ((9a) final concentration 500 nM) was added for 30 min at 37 °C and the cells were imaged. Microscopy was carried out on an AxioObserver.Z1 microscope (Carl Zeiss, Jena, Germany) equipped with an ApoTome imaging system and a Heating unit XL S using a Plan-Apochromat ×63/1.40 Oil objective (filter set 43 (red), 38 (green), 49 (blue)). Image processing and line scan analysis were performed with Zen blue Imaging software. The fluorescence intensity values were normalized to vehicle control.

CXCR1 = biological target: T2, CXCR1 (Homo sapiens, UniProt P25024); assay: Membrane-based NanoBRET saturation assay, selectivity (CXCR1_Nluc membranes); assay type: binding; conditions: cell-free, CXCR1_Nluc membranes
T2 construct: host or cells: HEK293T, transient; membrane preparation
T2 sequence (P25024 1-350): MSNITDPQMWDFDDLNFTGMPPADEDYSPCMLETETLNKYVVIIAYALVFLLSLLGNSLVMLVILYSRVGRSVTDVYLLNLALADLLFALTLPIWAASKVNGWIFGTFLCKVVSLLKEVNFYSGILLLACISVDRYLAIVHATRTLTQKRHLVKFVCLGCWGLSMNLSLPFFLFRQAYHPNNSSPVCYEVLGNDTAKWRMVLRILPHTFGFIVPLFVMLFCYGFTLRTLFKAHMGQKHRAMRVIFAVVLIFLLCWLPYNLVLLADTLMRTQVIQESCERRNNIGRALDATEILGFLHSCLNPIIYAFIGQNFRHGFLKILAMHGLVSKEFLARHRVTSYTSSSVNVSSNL
Method: (§1) For the establishment of our NanoBRET binding assay, we referred to a recently published protocol.[45] The fluorescent ligands (9a–c) were dissolved in DMSO (1 mM) and further diluted to varying concentrations in an assay buffer (50 mM Na2HPO4, 50 mM KH2PO4, pH 7.4, 1 mg/mL saponin, 5% FBS) and 5 μL of these dilutions were pipetted to a 384-well plate. To determine the total binding, 5 μL of the assay buffer was added to the corresponding wells, while 5 μL of a solution of 3 in the assay buffer (final assay concentration: 1 μM) was used to determine nonspecific binding. Then, 20 μL of the membrane preparations diluted in the assay buffer (2 μg total protein/well) were added and the plates were incubated for 90 min at 37 °C. Subsequently, 5 μL of a furimazine solution (Promega, Mannheim, Germany, final assay dilution: 1:5000) was added to each well (final assay volume: 35 μL) before measuring luminescence with a CLARIOstar microplate reader using 620/10 and 475/30 nm emission filters after 5 min of incubation in the dark. Bioluminescence resonance energy transfer (BRET) was determined as the ratio of acceptor fluorescence and donor luminescence. The algorithms for one-site saturation binding from PRISM9.5 (GraphPad) were utilized to analyze total, nonspecific, and specific binding. Specific binding signals were calculated as a difference of total and nonspecific binding. If required, netBRET values were calculated as the difference between total BRET values and the values obtained in the absence of a fluorescent ligand. For selectivity studies with CCR2, CCR7, CCR9, and CXCR1, we modified the procedure described above.

CXCR2 [4] = biological target: T1, CXCR2; assay: Membrane-based NanoBRET saturation assay (CXCR2_Nluc membranes); assay type: binding; conditions: cell-free
Method: Membranes from HEK293T cells transiently expressing the respective GPCR were prepared as follows. The medium of the transfected cells was refreshed after 24 h before cells were harvested 48 h post-transfection. The growth medium was removed, and the cells were carefully washed with cold phosphate-buffered saline (10 mL per Ø 15 cm dish). The cells were detached with 15 mL of ice-cold Tris-EDTA buffer (10 mM Tris, 0.5 mM EDTA, 5.4 mM KCl, 140 mM NaCl, pH 7.4) and subsequently centrifuged with 218g for 8 min. The supernatant was removed and the cells were resuspended in 10 mL of Tris-EDTA buffer. The cells were lysed with an Ultraturrax (20,000 rpm) used five times for 5 s with a 25 s break on ice in between. The lysate was centrifuged at 50,830g for 18 min at 4 °C. The supernatant was discarded, and the pellet was homogenized in a membrane buffer (50 mM Tris, 1 mM EDTA, 5 mM MgCl2, 100 μg/mL bacitracin, 5 μg/mL soybean trypsin inhibitor, pH 7.4) with a glass-teflon homogenizer. Aliquots of 250 μL were shock-frozen in liquid nitrogen and directly stored at −80 °C. Finally, the protein concentration was determined using the Lowry method.[43]
as §1

[5] = Ki of nonfluorescent ligands, cell-free, read-out: cell-free Kd or Ki for CXCR2
[6] = competition with 9a (50 nM), CXCR2_Nluc membranes, read-out: Ki
[7] = competition with 9a (50 nM), CXCR2_Nluc membranes, read-out: pKi (converted)
[8] = membranes from HEK293T cells transiently expressing CXCR2_Nluc, read-out: Kd (equilibrium saturation binding)

Ki (CXCR2 [1]; [5]): 2700 nM | Ki (CXCR2 [1]; [6]): ≥ 261 nM | Ki (CXCR2 [1]; [7]): 2630 nM
SMILES: CC(=O)C1=C(O)C(=O)N(c2ccc(Br)cc2F)C1C1CCCCC1 (stereo not drawn) [compound 20]

Ki (CXCR2 [1]; [6]): ≥ 261 nM | % comp. @ 70 μM (CXCR2 [1]; CXCR2_Nluc membranes): 28%
SMILES: CC(C)(C)c1ccc(S(=O)(=O)Nc2ccc(Cl)cc2-c2cncnc2N)cc1 [compound 24]

SMILES: CC[C@@H](Nc1c(Nc2ccnc(C(=O)N(C)C)c2O)c(=O)c1=O)c1cc(C(C)C)co1 [compound 1]
IC50 (CXCR2 [2]; reported value ref 4): 0.62 nM

cell-free Kd or Ki for CXCR2 [nM] (CXCR2 [1]; Ki of nonfluorescent ligands, cell-free): n.i. | Ki (CXCR2 [1]; [6]): ≥ 261 nM | % comp. @ 70 μM (CXCR2 [1]; CXCR2_Nluc membranes): -3%
SMILES: CC(C)(C)c1ccc(S(=O)(=O)Nc2ccc(Cl)cc2C(=O)c2cc[n+]([O-])cc2)cc1 [compound 23, vercirnon]

SMILES: O=C(Nc1ccc(Cl)c(S(=O)(=O)N2CCNCC2)c1O)Nc1cccc(F)c1Cl [compound 6, elubrixin]
IC50 (CXCR2 [2]; reported value ref 17): 22 nM

SMILES: CC[C@@H](Nc1c(Nc2cccc(C(=O)N(C)C)c2O)c(=O)c1=O)c1ccc(C)o1 [compound 2, navarixin]
effect of preincubation on membrane-associated 9a fluorescence (CXCR2 [3]; fixed HEK293 cells stably expressing CXCR2, competitor 10 μM): virtually blunted all membrane-associated probe fluorescence | effect of preincubation on membrane-based 9a fluorescence (CXCR2 [3]; live cell imaging, HEK293 cells stably expressing CXCR2, competitor 10 μM): very strong reduction in membrane-based fluorescence

Ki (CXCR2 [1]; [7]): 0.427 nM
SMILES: COCCn1cc(CNC(=O)c2cccc(Nc3c(N[C@@H](c4ccc(C)o4)C(C)(C)C)c(=O)c3=O)c2O)nn1 [compound 8, (R)-3-((2-((2,2-Dimethyl-1-(5-methylfuran-2-yl)propyl)amino)-3,4-dioxocyclobut-1-en-1-yl)amino)-2-hydroxy-N-((1-(2-methoxyethyl)-1H-1,2,3-triazol-4-yl)methyl)benzamide]

Kd (CXCR1): 122 ± 5.6 nM | Kd (CXCR2 [4]; [8]): 4.62 ± 0.87 nM
SMILES: Cc1ccc([C@H](Nc2c(Nc3cccc(C(=O)NCc4cn(CCOCCOCCNC(=O)c5ccc(C(=O)[O-])c(-c6c7ccc(=[N+](C)C)cc-7oc7cc(N(C)C)ccc67)c5)nn4)c3O)c(=O)c2=O)C(C)(C)C)o1 [9b, (R)-4-((2-(2-(2-(4-((3-((2-((2,2-Dimethyl-1-(5-methylfuran-2-yl)propyl)amino)-3,4-dioxocyclobut-1-en-1-yl)amino)-2-hydroxybenzamido)methyl)-1H-1,2,3-triazol-1-yl)ethoxy)ethoxy)ethyl)carbamoyl)-2-(6-(dimethylamino)-3-(dimethyliminio)-3H-xanthen-9-yl)benzoate]

Kd (CXCR1): 49.3 ± 0.7 nM | Kd (CXCR2 [4]; Kd of fluorescent ligands, read-out: cell-free Kd or Ki for CXCR2): 2 nM | Kd (CXCR2 [4]; [8]): 2.62 ± 0.78 nM
SMILES: Cc1ccc([C@H](Nc2c(Nc3cccc(C(=O)NCc4cn(CCCNC(=O)c5ccc(-c6c7ccc(=[N+](C)C)cc-7oc7cc(N(C)C)ccc67)c(C(=O)[O-])c5)nn4)c3O)c(=O)c2=O)C(C)(C)C)o1 [9c, (R)-5-((3-(4-((3-((2-((2,2-Dimethyl-1-(5-methylfuran-2-yl)propyl)amino)-3,4-dioxocyclobut-1-en-1-yl)amino)-2-hydroxybenzamido)methyl)-1H-1,2,3-triazol-1-yl)propyl)carbamoyl)-2-(6-(dimethylamino)-3-(dimethyliminio)-3H-xanthen-9-yl)benzoate]

Ki (CXCR2 [1]; [5]): 4900 nM | Ki (CXCR2 [1]; [6]): ≥ 261 nM | Ki (CXCR2 [1]; [7]): 4680 nM
SMILES: O=C(O)c1ccccc1Oc1ccc(Cl)cc1NS(=O)(=O)c1ccc(Cl)c(Cl)c1 [compound 21]

Ki (CXCR2 [1]; [5]): 261 nM | Ki (CXCR2 [1]; [6]): ≥ 261 nM and 300 nM | Ki (CXCR2 [1]; [7]): 251 nM
SMILES: Cc1ccc([C@H](NC2=NS(=O)(=O)N=C2Nc2ccc(C)c(C(=O)N(C)C)c2O)C(C)(C)C)o1 [compound 22]

Reference: publication PMC10388362, “Fluorescent Ligands Enable Target Engagement Studies for the Intracellular Allosteric Binding Site of the Chemokine Receptor CXCR2” (Journal of Medicinal Chemistry, 2023)
